pEC50: −log10 of the molar value.
What was measured:
[1] = tested on: Crz1p nuclear localization (calcineurin pathway) in WT-P2X2 strain; test: GFP-Crz1p nuclear localization in P2X2 yeast after ATP injection; type: cell-based, S. cerevisiae; conditions: five minutes after ATP injection, 200 μM ATP (f.c.)
Description: As further validation of P2X2 function in yeast, we sought to investigate whether P2X2 could trigger the calcineurin pathway, which is a native pathway controlled by calcium. After intracellular calcium levels rise, calcineurin regulates the nuclear localization of transcription factor Crz1p ([27]). To test if unnatural ion channels could activate this pathway, a GFP-tagged Crz1p was co-expressed with P2X2 in yeast. […] The degree of nuclear localization was double that of a negative control mutant P2X receptor.
Yeast strains EG.y156 WT-P2X2 or EG.y66 broken-P2X2 were transformed with EG.B723 GFP-tagged Crz1p. Yeast were cultured and induced as previously described. Cells were loaded onto a cell imaging microplate (Eppendorf, cat. no. 0030741030) that was pre-treated with Poly-D-lysine (50 μg/ml). Cells (50 μl) were attached to the plate for 30 min at room temperature, and wells were then gently washed three times with media to remove non-adherent cells. Cells were resuspended in 100 μl and imaged on a Cytation 5 Cell Imaging Multi-Mode reader. Cells were imaged before injection with the appropriate substrate, immediately after injection, and 5 or 10 min after injection. […] Nuclear localization events were automatically counted in Ilastik (https://www.ilastik.org/). Percent nuclear localization was counted as nuclear localization events divided by total cells.

[2] = target: T1, P2X2 G353 threonine substitution (G353T) (Homo sapiens, UniProt Q9UBL9, G353T); test: Site-saturation screen, fast kinetic assay in yeast, G353 threonine; type: cell-based; conditions: 500 μM ATP, ΔF/ΔT normalized to WT
T1 construct: expressed in transfected cells; host or cells: S. cerevisiae BY4741 background
T1 sequence (Q9UBL9 whole entry G353T): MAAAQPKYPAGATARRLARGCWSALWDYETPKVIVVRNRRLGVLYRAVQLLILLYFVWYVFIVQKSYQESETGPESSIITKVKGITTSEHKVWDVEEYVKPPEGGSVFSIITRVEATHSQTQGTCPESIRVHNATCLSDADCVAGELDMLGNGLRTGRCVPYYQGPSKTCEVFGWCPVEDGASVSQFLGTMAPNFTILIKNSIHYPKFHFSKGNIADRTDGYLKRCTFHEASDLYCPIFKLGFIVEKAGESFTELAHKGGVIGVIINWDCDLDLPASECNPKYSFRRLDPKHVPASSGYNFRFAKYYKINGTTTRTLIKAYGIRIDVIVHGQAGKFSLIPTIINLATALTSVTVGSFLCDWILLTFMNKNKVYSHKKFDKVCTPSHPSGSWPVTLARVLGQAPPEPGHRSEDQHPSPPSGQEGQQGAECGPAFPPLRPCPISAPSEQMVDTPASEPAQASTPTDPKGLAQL
Method: (§1) Figure 2 P2X2 SNP testing.A, homology model of P2X2 with the clinically implicated SNPs highlighted. V60 is highlighted in magenta and G353 is highlighted in dark blue. Lines indicate the positions of the mutations on each of the three monomers. B, zoomed view of the transmembrane region from the purple box in (A). V60 is magenta and G353 is dark blue. The structure is rotated 60° on the right image. C, screening data from site-saturation of the V60 residue in saturating ATP concentration (500 μM f.c.) using the fast kinetic assay. Signal onset values (ΔF/ΔT) are normalized to values from the WT receptor. […] Each of 2 to 3 replicates is represented as a single point. […]
(§2) GCaMP assays were performed as follows. […] Cells were loaded onto a black, clear bottom microplate and imaged on a FlexStation3 plate reader. […] Fluorescence was measured with an excitation at 485 nm, and emission 525 nm. […] For strains with mScarlet, fluorescence was read with excitation 570 nm/emission 610 nm. Slopes were calculated from the last 6 points of measurement and were normalized to the positive control samples. Any replicate in which the mScarlet value was measured to be over 2 standard deviations less than the mean for that set was discarded from further analysis.

[3] = target: T2, P2X2 G353 histidine substitution (G353H) (Homo sapiens, UniProt Q9UBL9, G353H); test: Site-saturation screen, fast kinetic assay in yeast, G353 histidine; type: cell-based; conditions: 500 μM ATP, ΔF/ΔT normalized to WT
T2 construct: expressed in transfected cells; host or cells: S. cerevisiae BY4741 background
T2 sequence (Q9UBL9 whole entry G353H): as the sequence (Q9UBL9 whole entry G353T) above, with T353H counted along it
Method: as §1, §2

P2X2 Y299F = target: T3, P2X2 Y299F (Homo sapiens, UniProt Q9UBL9, Y299F); test: Site-saturation screen of ligand-binding domain with ATP, Y299F; type: cell-based; conditions: 500 μM ATP, ± sd
T3 construct: expressed in transfected cells; host or cells: S. cerevisiae BY4741 background
T3 sequence (Q9UBL9 whole entry Y299F, the tested form may be a part): as the sequence (Q9UBL9 whole entry G353T) above, with Y299F, T353G counted along it
Description: (§3) The yeast P2X2 screening platform poses an opportunity to probe the structure-function of the ligand-binding domain in detail. The conserved P2X “NFR” motif at residues 300 to 302 is directly involved in bonding to the ATP triphosphate moiety ([41]), so we mutagenized residues at or near this motif (298–304), ultimately covering 133 variants (7 sites, 19 residues each). […] We compared our results to phylogenetic data based on a multiple sequence alignment (MSA) from a curated set of 419 related P2X homologs (Figs. 3B, and S5; Table S1).
(§4) Figure 3 Structure-function analysis of the ligand binding domain.A, heat map summarizing the screening data of ATP with seven site-saturation libraries surrounding the NFR-motif. B, sequence-logo plot of the mutagenized residues and percent identity scores as determined from MSA. C, homology model of P2X2 colored by sequence conservation as calculated from a multiple sequence alignment of 419 related P2X genes. Conservation is scored on a log scale where maroon is more conserved and blue is less conserved. D, ATP in the ligand-binding pocket of P2X2. […]
(§5) GCaMP assays were performed as follows. […] Cells were loaded onto a black, clear bottom microplate and imaged on a FlexStation3 plate reader. […] Fluorescence was measured with an excitation at 485 nm, and emission 525 nm. […] For strains with mScarlet, fluorescence was read with excitation 570 nm/emission 610 nm. […]

[4] = target: T4, P2X2 R302 glutamine (R302Q) (Homo sapiens, UniProt Q9UBL9, R302Q); test: Site-saturation screen of ligand-binding domain with ATP, R302 glutamine; type: cell-based; conditions: 500 μM ATP, ± sd
T4 construct: expressed in transfected cells; host or cells: S. cerevisiae BY4741 background
T4 sequence (Q9UBL9 whole entry R302Q, the tested form may be a part): as the sequence (Q9UBL9 whole entry G353T) above, with R302Q, T353G counted along it
Description: as §3, §4, §5

P2X2 F303M = target: T5, P2X2 F303M (Homo sapiens, UniProt Q9UBL9, F303M); test: Site-saturation screen of ligand-binding domain with ATP, F303M; type: cell-based; conditions: 500 μM ATP, ± sd
T5 construct: expressed in transfected cells; host or cells: Saccharomyces cerevisiae BY4741 derivative, genome-integrated, galactose-inducible
T5 sequence (Q9UBL9 whole entry F303M, the tested form may be a part): as the sequence (Q9UBL9 whole entry G353T) above, with F303M, T353G counted along it
Description: as §3, §4, §5

P2X2 A304F = target: T6, P2X2 A304F (Homo sapiens, UniProt Q9UBL9, A304F); test: Site-saturation screen of ligand-binding domain with ATP, A304F; type: cell-based; conditions: 500 μM ATP, ± sd
T6 construct: expressed in transfected cells; host or cells: Saccharomyces cerevisiae BY4741 derivative, genome-integrated, galactose-inducible
T6 sequence (Q9UBL9 whole entry A304F, the tested form may be a part): as the sequence (Q9UBL9 whole entry G353T) above, with A304F, T353G counted along it
Description: as §3, §4, §5

P2X2 A304V = target: T7, P2X2 A304V (Homo sapiens, UniProt Q9UBL9, A304V); test: Site-saturation screen of ligand-binding domain with ATP, A304V; type: cell-based; conditions: 500 μM ATP, ± sd
T7 construct: expressed in transfected cells; host or cells: Saccharomyces cerevisiae BY4741 derivative, genome-integrated, galactose-inducible
T7 sequence (Q9UBL9 whole entry A304V, the tested form may be a part): as the sequence (Q9UBL9 whole entry G353T) above, with A304V, T353G counted along it
Description: as §3, §4, §5

P2X2 A304Y = target: T8, P2X2 A304Y (Homo sapiens, UniProt Q9UBL9, A304Y); test: Site-saturation screen of ligand-binding domain with ATP, A304Y; type: cell-based; conditions: 500 μM ATP, ± sd
T8 construct: expressed in transfected cells; host or cells: Saccharomyces cerevisiae BY4741 derivative, genome-integrated, galactose-inducible
T8 sequence (Q9UBL9 whole entry A304Y, the tested form may be a part): as the sequence (Q9UBL9 whole entry G353T) above, with A304Y, T353G counted along it
Description: as §3, §4, §5

P2X2 = tested on: P2X2; design: method as in PMID 10570044; conditions: human glia; read-out: EC50, previously published value; cited from earlier work

Nc1ncnc2c1ncn2[C@@H]1O[C@H](COP(=O)(O)OP(=O)(O)OP(=O)(O)O)[C@@H](O)[C@H]1O [ATP]
degree of Crz1p nuclear localization relative to negative control mutant P2X receptor [1]: double
signaling, % of WT activity [2]: 50%
signaling, % of WT activity [3]: 32%
signal relative to WT (P2X2 Y299F): 21 ± 12%
signal, % of WT signaling [4]: 25 ± 28%
signal, % of WT signaling (P2X2 F303M): 71 ± 14%
signal, % of WT signaling (P2X2 A304F): 57 ± 2.6%
signal, % of WT signaling (P2X2 A304V): 32 ± 2.1%
signal, % of WT signaling (P2X2 A304Y): 52 ± 10%
pEC50 (P2X2): 5.22
